We go through 12 compounds from patent US10093630B2, “Pyrazole compounds and methods of making and using same” (ABIDE THERAPEUTICS, INC., priority 2014, dated 2018).

Holding throughout (assay): In vitro competitive activity-based protein profiling (gel-based, FP-Rh or HT-01 probe)
Common to all, as to type: biochemical

One experiment addresses T1, ABHD6 (Mus musculus, UniProt Q8R2Y0).
T1 construct: Proteomes (mouse brain membrane fraction or cell lysates); from tissue; host or cells: mouse brain membrane fraction (or cell lysates, not specified)
T1 sequence (Q8R2Y0 1-336): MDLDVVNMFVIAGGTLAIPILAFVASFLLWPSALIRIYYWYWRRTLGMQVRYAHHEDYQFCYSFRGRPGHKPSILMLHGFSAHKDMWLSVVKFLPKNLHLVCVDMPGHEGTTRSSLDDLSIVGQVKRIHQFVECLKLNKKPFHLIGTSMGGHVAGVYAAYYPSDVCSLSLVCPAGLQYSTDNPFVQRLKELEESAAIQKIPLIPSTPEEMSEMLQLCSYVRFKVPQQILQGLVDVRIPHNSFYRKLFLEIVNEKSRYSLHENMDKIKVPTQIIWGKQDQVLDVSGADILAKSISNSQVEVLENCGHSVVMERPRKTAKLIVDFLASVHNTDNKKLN
As to conditions: for inhibition at 1 µM: 1 μM inhibitor, read-out: % Inhibition at 1 μM, C = ABHD6; for inhibition at 10 µM: 10 μM inhibitor, read-out: % Inhibition at 10 μM, C = ABHD6; for IC50: mouse brain membrane fraction or cell lysates, 30 min preincubation at 37° C., read-out: Mouse (IC50 value, nM) ABHD6. The method in brief:
(§1)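 Mouse brain membrane proteome or cell lysate (1.0 mg/mL protein) was preincubated with inhibitor at varying concentrations for 30 min at 37° C, then labelled with FP-Rh or HT-01 for 30 min at 37° C. After SDS-PAGE, residual hydrolase activity was quantified as in-gel fluorescence of each band.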

Another experiment has as its target T2, FAAH (Mus musculus, UniProt O08914).
T2 construct: Proteomes (mouse brain membrane fraction or cell lysates); from tissue; host or cells: mouse brain membrane fraction (or cell lysates, not specified)
T2 sequence (O08914 1-579): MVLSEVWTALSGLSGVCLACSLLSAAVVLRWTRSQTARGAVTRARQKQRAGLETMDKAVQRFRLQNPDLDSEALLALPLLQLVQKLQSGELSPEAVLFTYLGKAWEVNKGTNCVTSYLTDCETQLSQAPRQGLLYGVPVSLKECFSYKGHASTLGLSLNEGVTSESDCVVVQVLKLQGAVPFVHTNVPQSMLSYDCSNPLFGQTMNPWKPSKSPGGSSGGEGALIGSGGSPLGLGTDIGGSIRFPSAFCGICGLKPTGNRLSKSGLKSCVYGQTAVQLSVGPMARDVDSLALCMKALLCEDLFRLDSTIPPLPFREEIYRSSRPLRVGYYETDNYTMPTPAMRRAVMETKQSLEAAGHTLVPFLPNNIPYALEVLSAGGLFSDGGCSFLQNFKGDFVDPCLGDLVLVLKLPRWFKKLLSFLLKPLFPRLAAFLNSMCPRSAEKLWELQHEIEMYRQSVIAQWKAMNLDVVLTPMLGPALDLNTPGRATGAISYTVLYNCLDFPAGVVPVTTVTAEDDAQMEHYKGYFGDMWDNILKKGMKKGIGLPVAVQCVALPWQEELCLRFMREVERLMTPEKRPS
As to conditions: for inhibition at 1 µM: 1 μM inhibitor, read-out: % Inhibition at 1 μM, B = FAAH; for inhibition at 10 µM: 10 μM inhibitor, read-out: % Inhibition at 10 μM, B = FAAH; for IC50: mouse brain membrane fraction or cell lysates, 30 min preincubation at 37° C., read-out: Mouse (IC50 value, nM) FAAH. The method in brief: as §1

In a further experiment the target is T3, MAGL (Mus musculus, UniProt O35678).
T3 construct: Proteomes (mouse brain membrane fraction or cell lysates); from tissue; host or cells: mouse brain membrane fraction (or cell lysates, not specified)
T3 sequence (O35678 1-303): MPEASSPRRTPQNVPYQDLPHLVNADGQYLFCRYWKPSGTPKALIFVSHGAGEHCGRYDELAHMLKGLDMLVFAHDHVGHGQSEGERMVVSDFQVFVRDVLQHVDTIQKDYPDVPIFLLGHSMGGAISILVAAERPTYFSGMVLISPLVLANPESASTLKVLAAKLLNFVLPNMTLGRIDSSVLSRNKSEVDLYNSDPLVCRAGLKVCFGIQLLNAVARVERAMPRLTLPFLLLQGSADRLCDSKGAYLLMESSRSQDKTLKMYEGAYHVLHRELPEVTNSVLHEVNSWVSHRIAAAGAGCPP
As to conditions: for inhibition at 1 µM: 1 μM inhibitor; for inhibition at 10 µM: 10 μM inhibitor; for IC50: mouse brain membrane fraction or cell lysates, 30 min preincubation at 37° C., read-out: Mouse (IC50 value, nM) MAGL. The procedure, abridged: as §1

The target of another experiment is T4, PLA2G7 (Mus musculus, UniProt Q60963).
T4 construct: Proteomes (mouse brain membrane fraction or cell lysates); from tissue; host or cells: mouse brain membrane fraction (or cell lysates, not specified)
T4 sequence (Q60963 22-440): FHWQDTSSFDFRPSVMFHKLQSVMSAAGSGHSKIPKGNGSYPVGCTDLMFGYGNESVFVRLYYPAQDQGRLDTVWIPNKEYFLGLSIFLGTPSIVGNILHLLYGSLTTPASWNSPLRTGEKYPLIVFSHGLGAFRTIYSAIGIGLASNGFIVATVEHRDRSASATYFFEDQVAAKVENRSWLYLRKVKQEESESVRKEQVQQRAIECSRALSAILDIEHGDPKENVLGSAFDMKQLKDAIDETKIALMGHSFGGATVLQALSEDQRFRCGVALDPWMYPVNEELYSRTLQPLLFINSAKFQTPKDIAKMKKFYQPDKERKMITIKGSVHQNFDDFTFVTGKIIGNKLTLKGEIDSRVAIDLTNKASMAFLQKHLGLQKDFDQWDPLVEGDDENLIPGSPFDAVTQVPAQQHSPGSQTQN
The following applies: for inhibition at 1 µM: 1 μM inhibitor, read-out: % Inhibition at 1 μM, D = PLA2G7; for inhibition at 10 µM: 10 μM inhibitor, read-out: % Inhibition at 10 μM, D = PLA2G7. The method in brief:
as §1

Read-outs that look alike come from different tables or passages of the source.

For orientation: inhibition means the change of the read-out against control, counted positive when it falls. For orientation: IC50 means the concentration that inhibits the measured activity by half. As for `O=C(N1CCN(Cc2ccc3ccccc3c2)CC1)n1cccn1` [Example 10, (4-(naphthalen-2-ylmethyl)piperazin-1-yl)(1H-pyrazol-1-yl)methanone], the inhibition at 1 µM was above 75% on ABHD6, above 75% at FAAH, above 75% at MAGL and below 25% at PLA2G7. In addition, the inhibition at 10 µM at ABHD6 was above 75%; at FAAH, above 75%; on MAGL, above 75%; at PLA2G7 it was below 25%. Also, the IC50 on MAGL is below 100 nM.
For `Cc1cnn(C(=O)Nc2ccc3ccccc3c2)c1` [Example 41, 4-Methyl-N-(naphthalen-2-yl)-1H-pyrazole-1-carboxamide], the inhibition at 1 µM at ABHD6, on FAAH, on MAGL and at PLA2G7 was below 25% throughout. The inhibition at 10 µM on ABHD6 was below 25%; at FAAH, below 25%; at MAGL it was above 75%; at PLA2G7, below 25%.
With `Cc1cnn(C(=O)N2CCN(Cc3ccc4ccccc4c3)CC2)c1` [Example 11, (4-Methyl-1H-pyrazol-1-yl)(4-(naphthalen-2-ylmethyl)piperazin-1-yl)methanone], the inhibition at 1 µM at ABHD6 was above 75%; on FAAH, below 25%; on MAGL, above 75%; at PLA2G7, below 25%. Also, the inhibition at 10 µM at ABHD6 is above 75%; at FAAH it was 25 to 75%; at MAGL it was above 75%; at PLA2G7, above 75%.
On to `O=C(Nc1ccc2ccccc2c1)n1cccn1` [Example 40, N-(Naphthalen-2-yl)-1H-pyrazole-1-carboxamide], for which the inhibition at 1 µM at ABHD6, on FAAH, at MAGL and on PLA2G7 was below 25% each time. Further, the inhibition at 10 µM was below 25% at ABHD6, below 25% at FAAH, above 75% on MAGL and below 25% on PLA2G7.
Take `O=C(c1cnn(C(=O)N2CCN(Cc3ccncc3)CC2)c1)N1CCC1` [Example 87, Azetidin-1-yl(1-(4-(pyridin-4-ylmethyl)piperazine-1-carbonyl)-1H-pyrazol-4-yl)methanone]: the inhibition at 1 µM at ABHD6, on FAAH, on MAGL and at PLA2G7 was below 25% throughout. Further, the inhibition at 10 µM at ABHD6 was above 75%; at FAAH it was above 75%; at MAGL it was below 25%; at PLA2G7, above 75%.
As to `Cc1ccccc1-c1cnn(C(=O)N2CCN(C(c3ccc(Cl)cc3)c3ccc(Cl)cc3)CC2)c1` [Example 122, (4-(Bis(4-chlorophenyl)methyl)piperazin-1-yl)(4-(o-tolyl)-1H-pyrazol-1-yl)methanone], the results for the inhibition at 1 µM on ABHD6 and at PLA2G7 were below 25% and 25 to 75%, respectively. In addition, the inhibition at 10 µM at ABHD6 was above 75%; on FAAH it was below 25%; on MAGL, 25 to 75%; at PLA2G7, above 75%.
Take `Cc1cc(-c2ccccc2)ccc1CN1CCN(C(=O)n2cc(Cl)cn2)CC1` [Example 137, (4-Chloro-1H-pyrazol-1-yl)(4-((3-methylbiphenyl-4-yl)methyl)piperazin-1-yl)methanone]: the inhibition at 1 µM at ABHD6 is above 75%; at FAAH, above 75%; at MAGL, above 75%; on PLA2G7 it was below 25%. In addition, the inhibition at 10 µM on ABHD6 is above 75%; on FAAH, above 75%; on MAGL, above 75%; at PLA2G7, 25 to 75%. Also, the IC50 at ABHD6 is 100 to 1000 nM; on FAAH, below 100 nM; at MAGL, below 100 nM; on PLA2G7 (mouse brain membrane fraction or cell lysates, 30 min preincubation at 37° C.), above 1000 nM.
`O=C(N1CCN(Cc2ccc(-c3ccccc3)cc2Cl)CC1)n1cc(C(F)(F)F)cn1` [Example 143, (4-((3-Chlorobiphenyl-4-yl)methyl)piperazin-1-yl)(4-(trifluoromethyl)-1H-pyrazol-1-yl)methanone]: the inhibition at 1 µM on ABHD6 is above 75%; on FAAH, above 75%; at MAGL, above 75%; at PLA2G7, 25 to 75%. The inhibition at 10 µM at ABHD6, on FAAH, at MAGL and on PLA2G7 was above 75% in each case. Also, the results for the IC50 at ABHD6, on FAAH and at MAGL were 100 to 1000 nM, below 100 nM and below 100 nM, respectively.
Regarding `N#Cc1cnn(C(=O)NCCCCc2ccccc2)c1` [Example 36, 4-Cyano-N-(4-phenylbutyl)-1H-pyrazole-1-carboxamide], the inhibition at 1 µM was below 25% at ABHD6, 25 to 75% on FAAH, below 25% at MAGL and below 25% at PLA2G7. Besides, the inhibition at 10 µM on ABHD6 is 25 to 75%; at FAAH it was above 75%; at MAGL, 25 to 75%; at PLA2G7 it was below 25%.
On to `CCN(Cc1cccc(C)c1)C(=O)n1cc(C)cn1` [Example 248, N-ethyl-4-methyl-N-(3-methylbenzyl)-1H-pyrazole-1-carboxamide], for which the inhibition at 1 µM at ABHD6 (gel-based competitive ABPP), at FAAH (gel-based competitive ABPP), at MAGL (gel-based competitive ABPP) and at PLA2G7 (gel-based competitive ABPP) was below 25% in each case.
Take `Cc1cnn(C(=O)N2CCCN(Cc3ccccc3)CC2)c1` [Example 168, (4-Benzyl-1,4-diazepan-1-yl)(4-methyl-1H-pyrazol-1-yl)methanone]: the inhibition at 10 µM at ABHD6, on FAAH, at MAGL and at PLA2G7 was below 25% each time.
With `O=C(c1cnn(C(=O)N2CCN(Cc3ccccn3)CC2)c1)N1CCC1` [Example 89, Azetidin-1-yl(1-(4-(pyridin-2-ylmethyl)piperazine-1-carbonyl)-1H-pyrazol-4-yl)methanone], the inhibition at 10 µM on ABHD6 is 25 to 75%; at FAAH, above 75%; at MAGL, below 25%; on PLA2G7, above 75%.
